Results published in ChEMBL document CHEMBL3991601, “The target landscape of clinical kinase drugs” (Science, 2017).
Where a name gives a salt, the structure may show the parent alone. The source made the active and inactive calls.

Legend:
[1] = molecular target: T1, Mitogen-activated protein kinase kinase kinase 3 (Homo sapiens, UniProt Q99759)
T1 sequence (Q99759 whole entry): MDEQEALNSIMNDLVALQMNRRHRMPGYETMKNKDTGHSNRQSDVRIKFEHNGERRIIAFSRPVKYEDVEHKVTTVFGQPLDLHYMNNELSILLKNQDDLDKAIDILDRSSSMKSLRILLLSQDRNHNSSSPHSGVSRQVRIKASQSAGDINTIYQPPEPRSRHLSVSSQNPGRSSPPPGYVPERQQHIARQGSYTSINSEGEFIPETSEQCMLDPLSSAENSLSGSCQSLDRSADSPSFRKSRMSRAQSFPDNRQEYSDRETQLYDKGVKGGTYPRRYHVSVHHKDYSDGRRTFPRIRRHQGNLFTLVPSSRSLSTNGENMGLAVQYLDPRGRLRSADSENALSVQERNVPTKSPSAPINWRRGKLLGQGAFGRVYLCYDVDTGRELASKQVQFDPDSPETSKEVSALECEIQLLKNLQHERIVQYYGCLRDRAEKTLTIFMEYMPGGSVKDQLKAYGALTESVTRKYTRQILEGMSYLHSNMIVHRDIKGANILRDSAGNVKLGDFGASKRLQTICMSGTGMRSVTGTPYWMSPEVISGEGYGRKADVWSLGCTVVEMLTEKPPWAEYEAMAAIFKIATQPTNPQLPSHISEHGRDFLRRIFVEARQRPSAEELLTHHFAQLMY

[2] = molecular target: T2, Mitogen-activated protein kinase kinase kinase 6 (Homo sapiens, UniProt O95382)
T2 sequence (O95382 whole entry): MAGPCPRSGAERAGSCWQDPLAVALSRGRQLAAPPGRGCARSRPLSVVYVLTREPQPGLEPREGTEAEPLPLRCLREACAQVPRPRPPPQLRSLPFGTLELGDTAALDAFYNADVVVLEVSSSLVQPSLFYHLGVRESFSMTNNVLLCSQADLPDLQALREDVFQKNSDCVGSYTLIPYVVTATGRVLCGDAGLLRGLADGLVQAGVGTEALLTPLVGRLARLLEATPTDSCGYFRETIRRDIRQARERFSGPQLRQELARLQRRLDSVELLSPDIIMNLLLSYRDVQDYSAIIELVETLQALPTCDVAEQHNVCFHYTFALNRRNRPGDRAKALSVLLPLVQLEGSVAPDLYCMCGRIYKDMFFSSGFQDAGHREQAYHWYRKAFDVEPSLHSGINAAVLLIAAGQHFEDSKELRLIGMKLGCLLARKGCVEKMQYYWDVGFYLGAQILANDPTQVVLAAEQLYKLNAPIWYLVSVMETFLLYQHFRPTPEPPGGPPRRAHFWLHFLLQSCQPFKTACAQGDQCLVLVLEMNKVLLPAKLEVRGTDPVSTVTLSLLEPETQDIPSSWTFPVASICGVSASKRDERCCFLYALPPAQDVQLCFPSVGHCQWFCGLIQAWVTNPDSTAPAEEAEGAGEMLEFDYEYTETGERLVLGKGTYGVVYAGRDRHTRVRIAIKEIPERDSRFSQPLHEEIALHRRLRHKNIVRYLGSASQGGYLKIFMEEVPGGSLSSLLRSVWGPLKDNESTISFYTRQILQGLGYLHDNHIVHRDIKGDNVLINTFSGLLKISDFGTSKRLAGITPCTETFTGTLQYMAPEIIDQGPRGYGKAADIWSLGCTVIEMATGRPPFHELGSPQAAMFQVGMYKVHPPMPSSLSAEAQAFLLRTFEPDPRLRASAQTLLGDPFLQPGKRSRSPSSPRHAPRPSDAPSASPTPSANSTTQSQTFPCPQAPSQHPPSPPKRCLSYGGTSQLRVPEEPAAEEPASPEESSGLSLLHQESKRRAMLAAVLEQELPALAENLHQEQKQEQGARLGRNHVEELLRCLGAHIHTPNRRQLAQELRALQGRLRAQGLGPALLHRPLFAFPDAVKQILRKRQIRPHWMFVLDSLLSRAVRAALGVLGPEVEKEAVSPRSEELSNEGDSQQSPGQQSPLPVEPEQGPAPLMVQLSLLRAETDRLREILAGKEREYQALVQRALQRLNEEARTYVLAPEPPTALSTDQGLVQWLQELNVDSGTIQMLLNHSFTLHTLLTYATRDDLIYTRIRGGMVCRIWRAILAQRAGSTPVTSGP

[3] = molecular target: Phosphatidylethanolamine-binding protein 1 (Homo sapiens, UniProt P30086)
[4] = molecular target: cAMP-dependent protein kinase catalytic subunit gamma (Homo sapiens, UniProt P22612)
[5] = molecular target: T3, Signal recognition particle receptor subunit alpha (Homo sapiens, UniProt P08240)
T3 sequence (P08240 whole entry): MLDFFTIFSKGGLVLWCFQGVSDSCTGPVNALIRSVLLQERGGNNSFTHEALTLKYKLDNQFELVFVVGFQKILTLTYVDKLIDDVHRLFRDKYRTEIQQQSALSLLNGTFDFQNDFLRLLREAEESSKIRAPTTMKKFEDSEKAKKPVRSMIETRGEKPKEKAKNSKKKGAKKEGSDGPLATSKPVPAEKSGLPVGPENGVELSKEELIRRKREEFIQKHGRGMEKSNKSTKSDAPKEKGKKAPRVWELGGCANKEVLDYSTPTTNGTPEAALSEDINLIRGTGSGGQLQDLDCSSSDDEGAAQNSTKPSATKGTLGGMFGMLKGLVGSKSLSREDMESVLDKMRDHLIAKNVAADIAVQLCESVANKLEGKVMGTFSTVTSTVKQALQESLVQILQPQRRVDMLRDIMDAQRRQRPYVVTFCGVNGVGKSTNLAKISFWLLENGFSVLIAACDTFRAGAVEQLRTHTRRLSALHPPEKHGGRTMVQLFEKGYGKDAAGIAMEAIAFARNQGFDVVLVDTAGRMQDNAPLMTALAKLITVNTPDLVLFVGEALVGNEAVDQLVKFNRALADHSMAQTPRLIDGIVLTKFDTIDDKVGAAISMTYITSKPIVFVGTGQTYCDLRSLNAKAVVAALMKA

[6] = molecular target: Serine/threonine-protein kinase 26 (Homo sapiens, UniProt Q9P289)
[7] = molecular target: Protein kinase C theta type (Homo sapiens, UniProt Q04759)
Note: in the data inactive means no Kd found up to 30 µM.

Phosphatidylethanolamine-binding protein 1, sequence (P30086 whole entry): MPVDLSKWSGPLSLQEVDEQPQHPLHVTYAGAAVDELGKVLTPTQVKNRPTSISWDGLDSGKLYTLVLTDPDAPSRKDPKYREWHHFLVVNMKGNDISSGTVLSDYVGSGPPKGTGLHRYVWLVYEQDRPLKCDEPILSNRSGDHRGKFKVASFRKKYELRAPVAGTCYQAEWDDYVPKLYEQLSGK
Serine/threonine-protein kinase 26, sequence (Q9P289 whole entry): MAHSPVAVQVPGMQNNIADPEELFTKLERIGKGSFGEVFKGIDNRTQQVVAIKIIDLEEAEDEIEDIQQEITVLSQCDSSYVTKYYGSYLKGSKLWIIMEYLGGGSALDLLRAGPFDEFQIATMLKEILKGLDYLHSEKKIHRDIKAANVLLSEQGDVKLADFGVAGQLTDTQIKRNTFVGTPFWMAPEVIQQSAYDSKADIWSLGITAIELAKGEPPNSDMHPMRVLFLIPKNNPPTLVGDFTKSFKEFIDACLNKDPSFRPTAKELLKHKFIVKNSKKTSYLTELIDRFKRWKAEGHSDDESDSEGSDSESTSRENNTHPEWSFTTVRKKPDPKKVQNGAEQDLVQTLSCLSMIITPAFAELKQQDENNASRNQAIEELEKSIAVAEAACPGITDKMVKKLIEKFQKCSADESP
cAMP-dependent protein kinase catalytic subunit gamma, sequence (P22612 whole entry): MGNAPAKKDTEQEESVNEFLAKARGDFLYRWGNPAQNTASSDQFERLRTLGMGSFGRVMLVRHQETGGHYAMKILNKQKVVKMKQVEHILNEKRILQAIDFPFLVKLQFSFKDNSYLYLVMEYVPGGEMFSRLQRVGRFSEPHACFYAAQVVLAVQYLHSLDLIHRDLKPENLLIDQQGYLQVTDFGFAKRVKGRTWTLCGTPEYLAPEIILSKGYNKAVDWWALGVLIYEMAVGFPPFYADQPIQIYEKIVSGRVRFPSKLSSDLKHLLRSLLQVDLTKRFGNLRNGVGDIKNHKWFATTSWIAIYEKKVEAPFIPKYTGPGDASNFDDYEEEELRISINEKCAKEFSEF
Protein kinase C theta type, sequence (Q04759 whole entry): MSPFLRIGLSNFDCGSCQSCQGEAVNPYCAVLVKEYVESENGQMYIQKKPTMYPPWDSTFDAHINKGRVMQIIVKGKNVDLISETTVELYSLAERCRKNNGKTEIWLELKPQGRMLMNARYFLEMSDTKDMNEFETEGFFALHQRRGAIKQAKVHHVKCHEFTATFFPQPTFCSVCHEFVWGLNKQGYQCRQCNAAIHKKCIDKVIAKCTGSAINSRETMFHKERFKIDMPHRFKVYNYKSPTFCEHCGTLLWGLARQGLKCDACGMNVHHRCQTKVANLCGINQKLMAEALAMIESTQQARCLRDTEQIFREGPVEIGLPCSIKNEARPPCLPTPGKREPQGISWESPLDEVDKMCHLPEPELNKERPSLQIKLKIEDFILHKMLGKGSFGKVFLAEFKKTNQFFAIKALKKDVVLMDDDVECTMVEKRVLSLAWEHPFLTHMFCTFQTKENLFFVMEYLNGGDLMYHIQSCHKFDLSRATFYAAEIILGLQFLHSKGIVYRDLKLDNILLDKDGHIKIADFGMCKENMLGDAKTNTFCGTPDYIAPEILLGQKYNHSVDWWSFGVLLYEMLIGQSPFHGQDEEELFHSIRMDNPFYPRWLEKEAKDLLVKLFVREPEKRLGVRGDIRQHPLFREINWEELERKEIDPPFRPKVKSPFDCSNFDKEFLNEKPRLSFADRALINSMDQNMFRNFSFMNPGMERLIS

| Kd [1] | Kd [2] | Kd [3] | Kd [4] | Kd [5] | Kd [6] | Kd [7] | SMILES |
| --- | --- | --- | --- | --- | --- | --- | --- |
| > 30 µM (inactive) | > 30 µM (inactive) | > 30 µM (inactive) | > 30 µM (inactive) | > 30 µM (inactive) | > 30 µM (inactive) |  | C[C@@H](Oc1cc(C(=O)Nc2ccc(C(=O)N3CCN(C)CC3)cc2)nnc1N)c1c(Cl)ccc(F)c1Cl |
| > 30 µM (inactive) | > 30 µM (inactive) |  | > 30 µM (inactive) |  | > 30 µM (inactive) |  | C[C@H]1CNCCCN1S(=O)(=O)c1cccc2cncc(F)c12 |
| > 30 µM (inactive) | > 30 µM (inactive) |  | > 30 µM (inactive) | > 30 µM (inactive) | > 30 µM (inactive) |  | CCNC(=O)C#Cc1ccc2c(c1)NC(=O)/C2=C(\Nc1ccc(CN(C)C)cc1)c1ccccc1 |
| > 30 µM (inactive) | > 30 µM (inactive) | > 30 µM (inactive) | > 30 µM (inactive) | > 30 µM (inactive) | > 30 µM (inactive) |  | COCc1c(-c2ccc(NC(=O)Nc3cc(C(F)(F)F)ccc3F)c(F)c2)c2c(N)ncnn2c1CN1CCOCC1 |
| > 30 µM (inactive) | > 30 µM (inactive) |  | > 30 µM (inactive) |  | > 30 µM (inactive) | > 30 µM (inactive) | Nc1ncnc2c1c(-c1cccc(OCc3ccccc3)c1)cn2[C@H]1C[C@@H](CN2CCC2)C1 [AEW-541] |
| > 30 µM (inactive) | > 30 µM (inactive) | > 30 µM (inactive) | > 30 µM (inactive) | > 30 µM (inactive) | > 30 µM (inactive) |  | COc1cc(Nc2ncc3c(n2)-c2ccc(Cl)cc2C(c2c(F)cccc2OC)=NC3)ccc1C(=O)O [ALISERTIB] |
| > 30 µM (inactive) | > 30 µM (inactive) |  | > 30 µM (inactive) | > 30 µM (inactive) | > 30 µM (inactive) | > 30 µM (inactive) | C=CC(=O)Nc1cc2c(Nc3ccc(F)c(Cl)c3)ncnc2cc1C#CC(C)(C)N1CCN(C)CC1 [AV-412 FREE BASE] |
|  |  | > 30 µM (inactive) | > 30 µM (inactive) | > 30 µM (inactive) |  |  | CNC(=O)c1ccccc1Sc1ccc2c(/C=C/c3ccccn3)n[nH]c2c1 [AXITINIB] |
| > 30 µM (inactive) | > 30 µM (inactive) |  | > 30 µM (inactive) | > 30 µM (inactive) | > 30 µM (inactive) | > 30 µM (inactive) | Cc1cc(C(=O)NOCCO)c(Nc2ccc(I)cc2F)n(C)c1=O [AZD-8330] |
| 1.09 µM (active) | 0.473 µM (active) |  | > 30 µM (inactive) | > 30 µM (inactive) | 0.029 µM | > 30 µM (inactive) | CCS(=O)(=O)N1CCN(c2ccc(Nc3ncc(C(N)=O)c(NC4CC4)n3)cc2)CC1 [Cerdulatinib Hydrochloride] |
|  |  | > 30 µM (inactive) |  | > 30 µM (inactive) |  |  | C[C@@H](Oc1cc(-n2cnc3ccc(CN4CCN(C)CC4)cc32)sc1C(N)=O)c1ccccc1C(F)(F)F [GSK-461364] |
| > 30 µM (inactive) | > 30 µM (inactive) |  |  |  | > 30 µM (inactive) | > 30 µM (inactive) | CCn1cc(-c2ccnc3[nH]c(-c4cccc(CN(C)C)c4)cc23)c(-c2ccc(NC(=O)N(C)C)cc2)n1 [GSK-1070916] |
| > 30 µM (inactive) | > 30 µM (inactive) |  | > 30 µM (inactive) | > 30 µM (inactive) | > 30 µM (inactive) | > 30 µM (inactive) | COc1ccc(S(=O)(=O)N(C(C)=O)c2ccccc2/C=C/c2cc[n+]([O-])cc2)cc1 [HMN-214] |
| > 30 µM (inactive) | > 30 µM (inactive) |  | > 30 µM (inactive) | > 30 µM (inactive) | > 30 µM (inactive) | > 30 µM (inactive) | CNC(=O)c1nn(C)c2c1C(C)(C)Cc1cnc(Nc3ccc(N4CCN(C)CC4)cc3)nc1-2 [MILCICLIB] |
| > 30 µM (inactive) | > 30 µM (inactive) |  |  | > 30 µM (inactive) | > 30 µM (inactive) |  | Cc1[nH]c(/C=C2\C(=O)Nc3ccccc32)c(C)c1CCC(=O)O [ORANTINIB] |
|  | > 30 µM (inactive) | > 30 µM (inactive) | > 30 µM (inactive) | > 30 µM (inactive) | > 30 µM (inactive) |  | NC(=O)c1c(OCc2c(F)cc(Br)cc2F)nsc1NC(=O)NCCCCN1CCCC1 [OSI-632] |
| 0.246 µM (active) | 1.06 µM (active) |  | > 30 µM (inactive) | > 30 µM (inactive) | > 30 µM (inactive) |  | CC(=O)NCC(=O)N1[C@@H]2CC[C@H]1c1ccc(Nc3ncc(C(F)(F)F)c(NC4CCC4)n3)cc12 [PF-03814735] |
|  |  | > 30 µM (inactive) | > 30 µM (inactive) | > 30 µM (inactive) |  |  | O=C(NOCCO)c1cc(CN2OCCCC2=O)c(F)c(F)c1Nc1ccc(I)cc1F [RO-4987655] |
|  |  | > 30 µM (inactive) | > 30 µM (inactive) |  |  |  | N#CC[C@H](C1CCCC1)n1cc(-c2ncnc3[nH]ccc23)cn1 [RUXOLITINIB] |
| > 30 µM (inactive) | > 30 µM (inactive) | > 30 µM (inactive) | > 30 µM (inactive) | > 30 µM (inactive) |  |  | Cn1ncc(Cl)c1-c1cc(C(=O)N[C@H](CN)Cc2ccc(F)c(F)c2)oc1Cl [UPROSERTIB] |

| SMILES | Kd [1] | Kd [2] | Kd [3] | Kd [4] | Kd [5] | Kd [6] | Kd [7] |
| --- | --- | --- | --- | --- | --- | --- | --- |
| CC(=O)c1cnc2ccc(-c3cc(Cl)c(O)c(Cl)c3)nc2c1N[C@H]1CC[C@H](CN(C)C)CC1 |  | 1.91 µM (active) | > 30 µM (inactive) | > 30 µM (inactive) | > 30 µM (inactive) | > 30 µM (inactive) |  |
| CC(C)(C)c1nc(-c2cccc(NS(=O)(=O)c3c(F)cccc3F)c2F)c(-c2ccnc(N)n2)s1 [DABRAFENIB] |  | > 30 µM (inactive) | > 30 µM (inactive) | > 30 µM (inactive) | > 30 µM (inactive) | > 30 µM (inactive) |  |
| Cn1cc(C2=C(c3cn(C4CCN(Cc5ccccn5)CC4)c4ccccc34)C(=O)NC2=O)c2ccccc21 [ENZASTAURIN] |  |  | > 30 µM (inactive) | > 30 µM (inactive) |  |  |  |
| CNC(=O)c1cc(Oc2ccc(NC(=O)Nc3cc(C(C)(C)C)nn3-c3ccc4ncccc4c3)c(F)c2)ccn1 [REBASTINIB] | > 30 µM (inactive) | > 30 µM (inactive) |  | > 30 µM (inactive) | > 30 µM (inactive) | > 30 µM (inactive) | > 30 µM (inactive) |
